Earlier results as cited in US11375717B2, “Combinations of acaricides and insect growth regulators for control of fleas without emesis in animals” (Piedmont Animal Health Inc., priority 2017, dated 2022).

Conditions: 30 mg/kg in cats and 10 mg/kg in dogs

## O=C(NC(=O)c1c(F)cccc1F)Nc1cc(Cl)c(OC(F)(F)C(F)C(F)(F)F)cc1Cl (stereo not shown) [Lufenuron]
  Emesis: common side effect
